Test results: US10005733B2, “N-(4-hydroxy-4-methyl-cyclohexyl)-4-phenyl-benzenesulfonamide and N-(4-hydroxy-4-methyl-cyclohexyl)-4-(2-pyridyl)-benzenesulfonamide compounds and their therapeutic use” (PIMCO 2664 LIMITED, priority 2014, dated 2018)
Like-named read-outs stand apart in the source and are kept apart here.

How the values were obtained:
hERG ion channel = target: T1, hERG ion channel (Homo sapiens, UniProt Q12809); assay: hERG Ion Channel Assay (Q-patch, hERG-CHO cells); type: cell-based; conditions: CHO cells stably transfected with hERG (hERG-CHO), pH 7.4, hERG tail current
T1 construct: expressed in transfected cells; host or cells: Chinese Hamster Ovary cells (hERG-CHO)
T1 sequence (Q12809 whole entry): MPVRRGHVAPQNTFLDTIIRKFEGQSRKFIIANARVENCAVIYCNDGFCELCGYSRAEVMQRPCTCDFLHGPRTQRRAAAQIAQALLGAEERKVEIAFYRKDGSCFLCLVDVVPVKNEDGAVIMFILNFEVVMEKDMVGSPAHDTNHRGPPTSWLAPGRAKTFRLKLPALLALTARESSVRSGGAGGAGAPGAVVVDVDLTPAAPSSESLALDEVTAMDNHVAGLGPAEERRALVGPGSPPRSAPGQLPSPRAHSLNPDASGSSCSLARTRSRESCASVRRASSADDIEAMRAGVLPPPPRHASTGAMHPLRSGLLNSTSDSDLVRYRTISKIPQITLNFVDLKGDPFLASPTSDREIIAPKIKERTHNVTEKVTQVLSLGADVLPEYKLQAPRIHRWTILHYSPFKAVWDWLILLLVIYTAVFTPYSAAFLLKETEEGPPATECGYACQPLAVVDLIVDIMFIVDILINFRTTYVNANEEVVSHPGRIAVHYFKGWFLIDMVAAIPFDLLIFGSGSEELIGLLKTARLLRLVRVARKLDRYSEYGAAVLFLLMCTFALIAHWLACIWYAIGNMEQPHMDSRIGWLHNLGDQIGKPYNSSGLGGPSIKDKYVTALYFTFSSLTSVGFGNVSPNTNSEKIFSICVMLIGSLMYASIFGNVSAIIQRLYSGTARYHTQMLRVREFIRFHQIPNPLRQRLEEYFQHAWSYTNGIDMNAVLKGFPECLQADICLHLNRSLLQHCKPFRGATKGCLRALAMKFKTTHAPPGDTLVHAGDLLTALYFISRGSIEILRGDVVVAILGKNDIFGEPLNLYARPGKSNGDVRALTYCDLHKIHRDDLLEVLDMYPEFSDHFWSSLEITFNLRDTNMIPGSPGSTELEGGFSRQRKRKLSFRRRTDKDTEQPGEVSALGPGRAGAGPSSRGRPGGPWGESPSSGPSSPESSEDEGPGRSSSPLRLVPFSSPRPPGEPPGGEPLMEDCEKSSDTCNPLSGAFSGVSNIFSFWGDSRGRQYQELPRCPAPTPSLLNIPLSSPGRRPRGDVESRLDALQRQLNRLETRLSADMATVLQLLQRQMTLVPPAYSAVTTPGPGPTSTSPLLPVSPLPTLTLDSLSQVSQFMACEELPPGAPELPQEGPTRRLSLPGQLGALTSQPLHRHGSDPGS
Procedure: The activity of the compounds against the hERG ion channel was tested. The assay was conducted using the automated path-clamp, Q-patch method using stably transfected Chinese Hamster Ovary cells (hERG-CHO). hERG-CHO cells were cultured in F-12 Kaighn's Nutrient Mixture medium (Invitrogen)+10% FBS at 37° C. for 1-3 days. Cells were kept at 30° C. for 24 to 48 hours prior to patch clamping in order to increase the hERG current amplitude. Subsequently, the cells were harvested by trypsinisation, and kept in Serum Free Medium (SFM) in the Q-patch cell preparation state for up to 6 hours at room temperature before being washed and re-suspended in extracellular solution and applied to the patch clamp sites for data recording.
Patch-clamp voltage protocol: After whole cell configuration was achieved, the cell was held at −80 mV. A 50 millisecond pulse to −40 mV was delivered to measure the leaking current, which was subtracted from the tail current on-line. Then the cell was depolarized to +20 mV for 2 seconds, followed by a one second pulse to −40 mV to reveal hERG tail current. This paradigm was delivered once every 5 seconds to monitor the current amplitude.
Extracellular solution: 137 mM NaCl, 4 mM KCl, 1.8 mM CaCl2, 1 mM MgCl2, 10 mM D(+)-glucose, 10 mM HePES buffer (pH adjusted to 7.4 with NaOH).
After the whole cell configuration was achieved, the extracellular solution (control) was applied first and the cell was stabilized for 2 minutes in extracellular solution. The test compound was then applied from low concentrations to high concentrations cumulatively. The cell was incubated with each test concentration for 5 minutes. During each incubation, the cell was repetitively stimulated using the voltage protocol described above, and the tail current amplitude was continuously monitored.
The degree of inhibition (%) was obtained by measuring the tail current amplitude, induced by a one second test pulse to −40 mV after a two second pulse to +20 mV, before and after incubation with the test compound. The difference in current was normalized to control and multiplied by 100 in order to obtain the percent inhibition.
Concentration (log) response curves were fitted to a logistic equation (three parameters assuming complete block of the current at very high test compound concentrations) to generate estimates of the 50% inhibitory concentration (IC50). The concentration-response relationship of each compound was constructed from the percentage reductions of current amplitude by sequential concentrations.

[1] = Rodent Pharmacokinetics Studies; type: in vivo, rat; conditions: for bioavailability / half-life: rat, plasma; for bioavailability: read-out: Bioavail, F (%)
Procedure: Absorption and metabolic stability were studied using an in vivo pharmacokinetics assay.
[…] […] For compound HMC-C-01-A the oral administration was formulated in 2% dimethylacetamide/20% hydroxypropyl-β-cyclodextrin in water. Animals were given free access to food throughout the study except for fasting overnight and until 2 hours post dose on the day of dosing.
Blood samples were taken from the retro-orbital plexus at the following time points and placed in microtubes containing 20% K2EDTA solution: […]
Blood samples were centrifuged to obtain plasma, which was transferred to a separate container and frozen at −20° C.
For analysis, samples were thawed at room temperature and prepared by protein precipitation with acetonitrile spiked with internal standard (500 ng/mL glipizide) in the ratio 1:4 with plasma. The samples were then vortexed for 5 minutes and centrifuged for 10 minutes at 20,600×g at 4° C. 100 μL of the supernatant was collected for analysis.
The pharmacokinetic parameters for the test compounds were calculated by Phoenix WinNonlin version 6.3 (Pharsight Corp, CA) using standard non-compartmental methods. Peak plasma concentrations (Cmax) and time of the peak plasma concentration (Tmax) were the observed values. The area under the plasma concentration-time curve (AUC) was determined by use of the linear trapezoidal rule up to the last measurable concentration (AUClast) and thereafter by extrapolation of the terminal elimination phase to infinity (AUCinf). The terminal elimination rate constant (kel) was determined by regression analysis of the linear terminal portion of the log plasma concentration-time curve. The elimination phase half-life (t1/2) was calculated as 0.693/kel.

[2] = test system: mice with collagen-induced arthritis; assay: Mouse Collagen-Induced Arthritis; type: in vivo; conditions: for % inhibition of disease: oral gavage once daily for 14 days, arthritic index vs control
Procedure: Seven- to eight-week-old male DBA/1j mice were used for all procedures. Animals were housed in groups of 10, and were maintained at 21° C.±2° C. on a 12-hour light/dark cycle with food and water ad libitum. Complete Freund's adjuvant (CFA) was prepared by emulsifying bovine type II collagen at 4 mg/mL with a 4 mg/mL suspension of Mycobacterium tuberculosis H37Ra in Incomplete Freund's adjuvant (IFA) (0.85 mL paraffin oil and 0.15 mL mannide monooleate) in a 1:1 (v/v) ratio. All mice were immunised subcutaneously with 200 μg of bovine type II collagen in CFA. 21 days later, all mice were immunised subcutaneously with 100 μg of bovine type II collagen in IFA. The mice started to develop signs and symptoms of arthritis following the ‘booster’ immunisation.
For macroscopic assessment of arthritis, the following signs were monitored in each paw of each mouse three times per week and summed to generate the Arthritic Index (AI) (the maximum AI for one animal is 16): • 0=no visible effects of arthritis. • 1=oedema and/or erythema of 1 digit. • 2=oedema and/or erythema of 2 digits. • 3=oedema and/or erythema of more than 2 digits. • 4=severe arthritis of entire paw and digits.
Animals were sorted into treatment groups with a mean arthritic index of 2.5 and then dosed once daily for 14 days with compound by oral gavage for test compounds, or by subcutaneous injection at a dose of 10 mg/kg for the positive control, etanercept. After completion of the experiment, the mice were sacrificed.
The data were analysed by generating an average of the arthritic index across each treatment group. The mean arthritic index was then compared to the arthritic index of control (untreated) animals using the following formula to generate a percentage inhibition of disease.

[3] = male Han Wistar rats, 1 mg/kg intravenous, 5% DMSO/10% solutol in saline
[4] = male Han Wistar rats, 5 mg/kg orally, 0.5% CMC/0.1% Tween-80
[5] = 5 mg/kg, male Han Wistar rats, oral in 0.5% CMC/0.1% Tween-80, i.v. in 5% DMSO/10% solutol in saline

C[C@]1(O)CC[C@H](NS(=O)(=O)c2ccc(-c3ccc(C#N)cc3Cl)cc2)CC1 [HMC-C-09-A, 2′-Chloro-4′-cyano-N-((1r,4r)-4-hydroxy-4-methylcyclohexyl)-[1,1′-biphenyl]-4-sulfonamide]
inhibition at 5 min, 10 µM (hERG ion channel): 57%

C[C@]1(O)CC[C@@H](NS(=O)(=O)c2ccc(-c3ccc(C#N)cc3)c(F)c2)CC1 [HMC-C-07-B, 4′-Cyano-2-fluoro-N-((1s,4s)-4-hydroxy-4-methylcyclohexyl)-[1,1′-biphenyl]-4-sulfonamide]
inhibition at 5 min, 10 µM (hERG ion channel): 40% | bioavailability ([1]; male, Han Wistar, iv, 5 mg/kg, rats, footnote (3): i.v. samples at 0.03, 0.1, 0.167, 0.25, 0.5, 1, 2, 4, 6, 8, 24 hours): 86% | half-life ([1]; male, Han Wistar, rats, footnotes (1)(2): 5% DMSO/10% solutol in saline for both routes): 9.7 h | half-life ([1]; male, Han Wistar, rats, study of footnote (3)): 9 h | bioavailability ([1]; male, Han Wistar, rats, footnotes (1)(2): 5% DMSO/10% solutol in saline for both routes, sampling incl. 23 and 24 hours, oral 10 mg/kg): 100% | i.v. AUC ([1]; rats, 1 mg/kg i.v., footnote (3): i.v. samples at 0.03, 0.1, 0.167, 0.25, 0.5, 1, 2, 4, 6, 8, 24 hours): 11627 ng/mL/min | p.o. AUC ([1]; rats, 5 mg/kg orally, study of footnote (3)): 39463 ng/mL/min | p.o. AUC (ng/mL/min) ([1]; rats, footnotes (1)(2)(5): dosed at 10 mg/kg orally in 5% DMSO/10% solutol in saline): 146299 ^(5) ng/mL/min | i.v. AUC ([1]; rats, footnotes (1)(2): 1 mg/kg i.v. in 5% DMSO/10% solutol in saline, sampling incl. 23 and 24 hours): 24072 ng/mL/min | % inhibition of disease ([2]; 0.3 mg/kg/day): 16% | % inhibition of disease ([2]; 3 mg/kg/day): 56% | signs and symptoms of disease (in words) ([2]; compared with Etanercept (10 mg/kg s.c.), FIG. 1 and 2): able to reduce signs and symptoms of disease in mice with collagen-induced arthritis to a similar extent as the clinically utilised treatment, Etanercept

O=S(=O)(N[C@H]1CC[C@H](O)CC1)c1ccc(-c2ccc(F)cc2F)cc1 [ABD599, reference compound]
inhibition at 5 min, 10 µM (hERG ion channel): 74.9%

C[C@]1(O)CC[C@H](NS(=O)(=O)c2ccc(-c3ccc(C#N)cc3)c(F)c2)CC1 [HMC-C-07-A, 4′-Cyano-2-fluoro-N-((1r,4r)-4-hydroxy-4-methylcyclohexyl)-[1,1′-biphenyl]-4-sulfonamide]
inhibition at 5 min, 10 µM (hERG ion channel): 47%

Cc1cc(S(=O)(=O)N[C@H]2CC[C@H](O)CC2)ccc1-c1ccc(F)cc1F [ABD735, reference compound]
i.v. AUC [1, 3]: 1081 ng/mL/min | p.o. AUC (ng/mL/min) [1, 4]: 8965 ^(4) ng/mL/min | bioavailability [1, 5]: 83% | % inhibition of disease ([2]; 10 mg/kg/day): 44%

C[C@]1(O)CC[C@H](NS(=O)(=O)c2ccc(-c3ncc(Cl)cc3C#N)cc2)CC1 [HMC-N-05-A, 4-(5-Chloro-3-cyanopyridin-2-yl)-N-((1r,4r)-4-hydroxy-4-methylcyclohexyl)benzenesulfonamide]
inhibition at 5 min, 10 µM (hERG ion channel): 35% | bioavailability ([1]; male, Han Wistar, 5 mg/kg, rats, footnote (1): 5% DMSO/10% solutol in saline for both oral and intravenous routes): 88% | half-life ([1]; male, Han Wistar, rats, footnote (1): 5% DMSO/10% solutol in saline for both routes): 0.8 h | i.v. AUC ([1]; rats, 1 mg/kg i.v., footnote (1): 5% DMSO/10% solutol in saline): 891 ng/mL/min | p.o. AUC ([1]; rats, 5 mg/kg orally, footnote (1): 5% DMSO/10% solutol in saline): 3937 ng/mL/min

C[C@]1(O)CC[C@@H](NS(=O)(=O)c2ccc(-c3ccc(F)cc3F)cc2)CC1 [ABD899, reference compound]
inhibition at 5 min, 10 µM (hERG ion channel): 85.2% | i.v. AUC [1, 3]: 2133 ng/mL/min | p.o. AUC (ng/mL/min) [1, 4]: 10740 ^(4) ng/mL/min | bioavailability [1, 5]: 50% | % inhibition of disease ([2]; 10 mg/kg/day): 77%

C[C@]1(O)CC[C@H](NS(=O)(=O)c2ccc(-c3ccc(Cl)cc3C#N)c(F)c2)CC1 [HMC-C-08-A, 4′-Chloro-2′-cyano-2-fluoro-N-((1r,4r)-4-hydroxy-4-methylcyclohexyl)-[1,1′-biphenyl]-4-sulfonamide]
inhibition at 5 min, 10 µM (hERG ion channel): 29%

C[C@]1(O)CC[C@H](NS(=O)(=O)c2ccc(-c3ccc(F)cc3F)cc2)CC1 [ABD900]
inhibition at 5 min, 10 µM (hERG ion channel): 15.1%
